Laboratory results reported in patent publication US20100160228A1, “METHOD FOR INHIBITING OR STIMULATING ANGIOGENESIS IN AN INDIVIDUAL” (VALTION TEKNILLINEN TUTKIMUSKESKUS, priority 2007, published 2010).

Columns and labels:
Type in all cases: cell-based, human
[1] = test system: VEGFR2; assay: VEGFR2 kinase activity from HUVEC lysates (Kinase-Glo Plus); details: HUVEC treated with no peptide or with scrambled control TAT peptide, FIG. 4B
Protocol: (A) Serum-starved subconfluent HUVEC were treated for 1 h with α1 integrin cytoplasmic tail fusion peptide (α1TAT) or TAT-scramble control fusion peptide (ScrTAT) (both at 200 nM) followed by VEGF-induction (100 ng/ml, 15 min) where indicated. Cell lysates were resolved on SDS-PAGE and immunoblotted for phosphorylated VEGFR2 (or tubulin as a control). (B) HUVEC were treated as in (A) and VEGFR2 kinase activity (mean±SD, n=3) was measured from the cell lysates. **, p<0.01. (C) Recombinant, purified TCPTP was incubated with α1 or α2 cytoplasmic tail peptides (L-amino acids) or with α1 and scrambled TAT peptides (D-amino acids) and analyzed for phosphatase activity (mean±SD, n=3).
VEGFR2 kinase activity was studied using Kinase-Glo Plus kinase assay kit according to manufacturer's protocol (Promega) with 25 µM ATP. Briefly, HUVEC plated on gelatin were serum-starved overnight, treated with 400 nM α1TAT or ScrTAT or left untreated and stimulated with 100 ng/ml VEGF for 15 min, when indicated. The cells were lysed to ice-cold lysis buffer (1% NP-40, 20 mM Hepes pH 7.4, 150 mM NaCl, 10% glycerol, 2.5 mM EDTA, complete protease inhibitor (Roche) and phosphatase inhibitor coctails I and II (Sigma)). The lysates were incubated in anti-VEGFR2 or control IgG-coated wells with shaking for 2 h and washed 3 times with lysis buffer and 3 times with cold kinase assay buffer (20 mM Hepes pH 8, 0.1 mM Na3VO4, 10 mM MnCl2, 1 mM DTT). Kinase assay was performed for 10 min at +37° C.

[2] = test system: HUVEC; assay: Time-lapse chemokinesis assay; details: HUVEC on gelatin, 4 hours time-lapse, FIG. 5B and FIG. 9
Protocol: (§1) FIG. 5. Controlled TCPTP activation inhibits VEGF-driven capillary formation, chemokinesis and chemotaxis. (A) HUVEC were cultured in fibrin gels and treated with or without VEGF and TAT peptides (200 nM). After 24 h the formation of capillary tubes was semiquantitatively scored. (B) HUVEC were plated on gelatin in the presence of the peptides (200 nM) or left untreated for 1 h. The cells were stimulated as indicated and migration of individual cells was tracked using time-lapse microscopy. Cumulative migration distance was plotted for randomly picked individual cells. (C) HUVEC were treated with 200 nM peptides and the transmigration assay was performed as in FIG. 3D. (D) HUVEC were transfected with siRNA against TCPTP or a control siRNA, and TCPTP expression was analysed with immunofluorescence. Equal exposures of TCPTP (green) and DAPI (blue) stainings are shown. 48 h post-transfection cells were subjected to transmigration assay as in […].
FIG. 9. TCPTP activation by α1-peptide inhibits VEGF induced chemokinesis. HUVEC were plated on gelatin in the presence of the peptides (200 nM) or left untreated for 1 h. The cells were stimulated as indicated and migration of individual cells was tracked using time-lapse microscopy. Representative images of individual cells overlayed with their migration patterns (different colours) at the indicated time points are shown.
Time-lapse chemokinesis assays. HUVEC were plated on gelatin-coated wells and allowed to attach for 1 h in the presence or absence of 200 nM α1TAT or ScrTAT and 20 ng/ml VEGF. Migration of individual cells was recorded at 5 min intervals for 4 h using 20× objective and digital video recording. The migration pathway of at least ten randomly picked cells was tracked using the Metamorph program. The cumulative migration distances were also plotted.

[3] = test system: HUVEC; assay: Transwell chemotaxis assay towards VEGF; details: vector-transfected HUVEC, FIG. 3D
Protocol: FIG. 3. TCPTP activity controls VEGF-dependent responses in endothelial cells. (A) HUVEC were transfected with the constitutively active TCPTP (TC37) or vector control (pCG), stimulated or not with VEGF, and stained for VEGFR2 (red) and nuclei (blue) after fixation and permeabilization. Arrows indicate VEGFR2 vesicles. (B) HUVEC were treated as in (A) and subjected to trypsin digestion on ice. VEGFR2 protected from trypsin (=internalized pool) was detected by immunoblotting. The intensities of VEGFR2 bands were quantified and are expressed relative to pCG-VEGF control. A representative experiment out of 2 with similar results is shown. (C) HUVEC were transfected with no oligo, siRNA against TCPTP or a control siRNA, and TCPTP expression was measured using immunoblotting. Cells were treated with 80 ng/ml VEGF and proliferation of sparse cells plated on gelatin was assayed after 16 h using BrdU-based assay (mean±SD; n=4-6; *, p<0.05). (D) HUVEC were transfected as in (A) and chemotaxis towards VEGF was measured using a Transwell assay for 4 hours. Cells adhering to the bottom of the filter were fixed and stained with crystal violet. Number of migrated cells was counted (mean±SEM, n=3).
as §1
Chemotaxis assays. HUVEC electroporated with the DNA or siRNA or non-transfected HUVEC were treated with 200 nM α1TAT, ScrTAT or left untreated for 1 h. Transwell filters (8 μm pore size, Costar, Cambridge, Mass.) were coated with gelatin and medium (RPMI, 4 mM L-glutamine, 10% FBS) and VEGF (100 ng/ml) were added to the lower chamber. Cells were harvested from the culture plates, and transferred into the Transwell inserts (4×10^5 cells/well) in RPMI with 0.2% soybean trypsin inhibitor. […] The inserts were fixed in 4% paraformaldehyde, cells stained with 0.5% crystal violet and the number of migrated cells was counted using a microscope.

Which results are given for VEGF?
increase of VEGFR2 kinase activity upon VEGF-stimulation [1]: about 10 fold; induction of HUVEC chemokinesis [2]: 99±25%; stimulation of chemotaxis [3]: > 2 fold
